Data: paper PMC8954350, “Non-Canonical Cannabinoid Receptors with Distinct Binding and Signaling Properties in Prostate and Other Cancer Cell Types Mediate Cell Death” (International Journal of Molecular Sciences, 2022)
Where two headings read alike, the source gives them in different places.

Assays:
[1] = molecular target: T1, canonical CBRs stably expressed in CHO-hCB2 (Homo sapiens, UniProt P34972); experiment: Adenylyl cyclase modulation in whole CHO-hCB2 cells; type: cell-based; conditions: 10 μM
T1 construct: expressed in transfected cells
T1 sequence (P34972 whole entry): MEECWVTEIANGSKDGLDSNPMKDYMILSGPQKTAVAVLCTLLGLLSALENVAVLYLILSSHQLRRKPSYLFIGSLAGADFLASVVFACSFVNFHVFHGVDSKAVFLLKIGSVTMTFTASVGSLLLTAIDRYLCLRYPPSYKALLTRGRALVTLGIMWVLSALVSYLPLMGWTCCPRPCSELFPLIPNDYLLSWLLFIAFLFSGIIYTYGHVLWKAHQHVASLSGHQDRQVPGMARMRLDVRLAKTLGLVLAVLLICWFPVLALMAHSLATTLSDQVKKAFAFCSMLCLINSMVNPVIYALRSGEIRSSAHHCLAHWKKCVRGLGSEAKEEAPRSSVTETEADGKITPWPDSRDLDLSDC
Method: Growth media contained FetalPlex (10%) and 1% pennicillin/streptomycin. Cells were cultured overnight in a humidified incubator maintained at 37 °C with 5% CO2. For some experiments, a subset of wells were treated overnight with pertussis toxin (2 μL/mL) to abolish Gi/Go protein-mediated signaling. […] After [^3H]adenine incubation, media was replaced with 0.5 mL of a Krebs–Ringer–HEPES solution (10 mM HEPES, 110 mM NaCl, 25 mM Glucose, 55 mM Sucrose, 5 mM KCl, 1 mM MgCl2, and 1.8 mM CaCl2 at pH 7.4) containing 0.5 mM IBMX, 10 μM forskolin and a receptor-saturating concentration (10^−5 M) of cannabinoid ligands to be examined. Plates were then floated in a 37 °C water bath for 15 min, followed by termination of reactions by addition of 50 μL of 2.2 N HCl to each well. Then, [^3H]cAMP was isolated by alumina column chromatography and collection in a 4 mL elution volume. Finally, 10 mL of Scintiverse^TM BD Cocktail scintillation fluid (Fisher Scientific; Hampton, NH, USA) was added to eluates and radioactivity (quantified as DPMs) was quantified via a liquid scintillation spectrophotometer (Tri Carb 2100 TR Liquid Scintillation Analyzer, Packard Instruments, Meriden, CT, USA).

DU-145 cells [2] = experiment: LDH cytotoxicity, DU-145 cells; type: cell-based, human; conditions: 24 h
Method: DU-145 cells were seeded at a density of 130 × 10^3 cells/well in 6-well plates and maintained in an incubator at 37 °C with 5% CO2 for 24 h. […] Treated cells were incubated for an additional 24 h, followed by quantification of LDH release. LDH released from damaged or dying cells oxidizes lactate to produce NADH which then reacts with a water-soluble tetrazolium salt (WST) reagent to produce a yellow-colored product. The intensity of the yellow-colored product was detected with an OD reading at 450 nm (quantified by a BioTek microplate reader interfaced with SoftMax Pro 5.4.5 software; Winooski, VT, USA) and was directly proportional to the amount of LDH released. Percent cytotoxicity was calculated according to the manufacturer’s protocol as the following: % Cytotoxicity=OD450 Supernatant/Supernatant+Lysate

[3] = molecular target: T1, canonical CBRs stably expressed in CHO-hCB2; experiment: [^35S]GTPγS binding, CHO-hCB2 homogenates; type: biochemical; conditions: 10 μM
Method: (§1) Non-specific binding was defined as radioactivity remaining in the presence of 10 μM of non-radioactive GTPγS and subtracted from total binding to determine specific [^35S]GTPγS binding. All binding reactions were conducted in triplicate, in a final volume of 1 mL, and, following mixing, were incubated for 30 min at 30 °C. After incubation, reactions were terminated by rapid vacuum filtration through Whatman GF/B glass fiber filters (Brandel; Gaithersburg, MD, USA), followed by three washes of 4 mls of ice-cold filtration buffer (50 mM Tris, pH 7.4, and 0.05% bovine serum albumin). Samples were punched out from filter papers into scintillation vials, to which 4 mls of ScintiverseTM-BDR cocktail scintillation fluid (Fisher Scientific; Hampton, NH, USA) was added. Filters were incubated at room temperature for 24 h in scintillation fluid, vortexed, and radioactivity (measured as DPMs) was determined via a liquid scintillation spectrophotometer (Tri Carb 2100 TR Liquid Scintillation Analyzer, Packard Instruments, Meriden, CT, USA).

[4] = system: CBRs expressed in PC-3 membranes; experiment: [^3H]WIN-55,212-2 competitive binding screen, PC-3 membranes; set-up: species or system human
Method: as §1, with “The assay” for “Non-specific binding”, “conducted” for “defined”, “previously detailed. […]” for “radioactivity remaining in the presence of 10 μM of non-radioactive GTPγS and subtracted from total binding to determine specific [^35S]GTPγS binding.”, “20” for “30”, “in a 37 °C water bath to achieve equilibrium.” for “at 30 °C.”, “quantified” for “determined”
(§2) These experiments were conducted to screen well-characterized cannabinoid ligands with high affinity for canonical CB1 and/or CB2Rs for binding to CBRs expressed in prostate cancer cells lines, as detailed in [33]. […] All binding reactions were conducted in triplicate, in a final volume of 1 mL, and, following mixing, were incubated for 20 min in a 37 °C water bath to achieve equilibrium. After incubation, reactions were terminated by rapid vacuum filtration and processed for radioactivity, as detailed in Section 4.5.1.

DU-145 cells [5] = experiment: ATP-dependent cell viability, DU-145 cells; type: cell-based, human; conditions: co-incubation with 10 μM ligand, 24 h
Method: Adenosine 5′-triphosphate (ATP) levels were quantified as a measure of DU-145 cell viability in response to cannabinoid treatement using an ATP-luciferase-based bioluminescence assay kit (CellTiter-Glo®, Sigma, MO, USA) and BioTek microplate reader (Winooski, VT, USA). DU-145 cells were seeded at a density of 8 × 10^3 cells/well in a 96-well plate and incubated for 24 h at 37 °C with 5% CO2. The next day, cells were treated with either vehicle or experimental drugs (10 or 50 μM) and incubated for another 24 h at 37 °C with 5% CO2. ATP levels were assessed following incubation by interpolation from an ATP standard curve according to the manufacturer’s protocol, as described previously.

[6] = system: CBRs expressed in DU-145 membranes; type: binding, human
Method: as §1, with “The assay” for “Non-specific binding”, “conducted” for “defined”, “previously detailed. […]” for “radioactivity remaining in the presence of 10 μM of non-radioactive GTPγS and subtracted from total binding to determine specific [^35S]GTPγS binding.”, “20” for “30”, “in a 37 °C water bath to achieve equilibrium.” for “at 30 °C.”, “quantified” for “determined”
as §2

DU-145 cells [7] = experiment: Mitochondrial membrane potential (JC-1 staining), DU-145 cells; type: cell-based, human; conditions: 24 h; for mitochondrial membrane potential (MMP) depolarization: JC-1
[8] = system: canonical human CB2Rs (CHO-hCB2); set-up: method as in PMID 34592231; conditions: 1 μM ligand, 1 nM radioligand, CHO-hCB2 membranes; cited from earlier work
[9] = system: canonical human CB2Rs (CHO-hCB2); set-up: method as in PMID 34592231; conditions: 1 μM ligand, 0.2 nM radioligand, CHO-hCB2 membranes; cited from earlier work
[10] = system: CBRs expressed in PC-12 cells; experiment: [^3H]WIN-55,212-2 competitive binding screen, PC-12 membranes; set-up: species or system rat; conditions: 1 μM ligand, 1 nM radioligand
Method: as §1, with “The assay” for “Non-specific binding”, “conducted” for “defined”, “previously detailed. […]” for “radioactivity remaining in the presence of 10 μM of non-radioactive GTPγS and subtracted from total binding to determine specific [^35S]GTPγS binding.”, “20” for “30”, “in a 37 °C water bath to achieve equilibrium.” for “at 30 °C.”, “quantified” for “determined”

[11] = molecular target: T2, canonical mouse CB1Rs (mouse brain) (Mus musculus, UniProt P47746); type: binding; conditions: 1 μM ligand, mouse brain membranes
T2 construct: membranes prepared from mouse brain containing a high density of mouse CB1 receptors (mCB1); from tissue; host or cells: mouse brain membrane homogenate
T2 sequence (P47746 whole entry): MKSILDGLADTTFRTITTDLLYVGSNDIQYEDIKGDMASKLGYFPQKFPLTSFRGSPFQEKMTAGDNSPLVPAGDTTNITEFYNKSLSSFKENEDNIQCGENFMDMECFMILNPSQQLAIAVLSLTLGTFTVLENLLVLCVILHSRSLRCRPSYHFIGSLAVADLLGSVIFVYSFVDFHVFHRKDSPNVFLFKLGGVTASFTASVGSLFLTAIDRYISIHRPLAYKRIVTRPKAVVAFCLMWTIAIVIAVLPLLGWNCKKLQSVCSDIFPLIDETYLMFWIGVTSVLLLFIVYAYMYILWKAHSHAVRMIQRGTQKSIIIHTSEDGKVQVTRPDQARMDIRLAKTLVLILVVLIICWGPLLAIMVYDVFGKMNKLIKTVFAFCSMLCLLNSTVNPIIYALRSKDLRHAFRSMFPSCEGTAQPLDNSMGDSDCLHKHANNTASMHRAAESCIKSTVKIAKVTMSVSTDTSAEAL
Method: as §1, with “The assay” for “Non-specific binding”, “conducted” for “defined”, “previously detailed. […]” for “radioactivity remaining in the presence of 10 μM of non-radioactive GTPγS and subtracted from total binding to determine specific [^35S]GTPγS binding.”, “20” for “30”, “in a 37 °C water bath to achieve equilibrium.” for “at 30 °C.”, “quantified” for “determined”

[12] = system: CBRs expressed in C6-glioma cells; experiment: [^3H]CP-55,940 competitive binding screen, C6-glioma membranes; set-up: species or system mouse; conditions: 1 μM ligand, 0.2 nM radioligand
Method: as §1, with “The assay” for “Non-specific binding”, “conducted” for “defined”, “previously detailed. […]” for “radioactivity remaining in the presence of 10 μM of non-radioactive GTPγS and subtracted from total binding to determine specific [^35S]GTPγS binding.”, “20” for “30”, “in a 37 °C water bath to achieve equilibrium.” for “at 30 °C.”, “quantified” for “determined”

[13] = system: canonical human CB1Rs (CHO-hCB1); set-up: method as in PMID 34592231; conditions: 1 μM ligand, 0.2 nM radioligand, CHO-hCB1 membranes; cited from earlier work
[14] = system: CBRs expressed in HeLa cells; experiment: [^3H]CP-55,940 competitive binding screen, HeLa membranes; set-up: species or system human; conditions: 1 μM ligand, 0.2 nM radioligand
Method: as §1, with “The assay” for “Non-specific binding”, “conducted” for “defined”, “previously detailed. […]” for “radioactivity remaining in the presence of 10 μM of non-radioactive GTPγS and subtracted from total binding to determine specific [^35S]GTPγS binding.”, “20” for “30”, “in a 37 °C water bath to achieve equilibrium.” for “at 30 °C.”, “quantified” for “determined”

[15] = system: CBRs expressed in PC-12 cells; experiment: [^3H]CP-55,940 competitive binding screen, PC-12 membranes; set-up: species or system rat; conditions: 1 μM ligand, 0.2 nM radioligand
Method: as §1, with “The assay” for “Non-specific binding”, “conducted” for “defined”, “previously detailed. […]” for “radioactivity remaining in the presence of 10 μM of non-radioactive GTPγS and subtracted from total binding to determine specific [^35S]GTPγS binding.”, “20” for “30”, “in a 37 °C water bath to achieve equilibrium.” for “at 30 °C.”, “quantified” for “determined”

[16] = system: canonical human CB1Rs (CHO-hCB1); set-up: method as in PMID 34592231; conditions: 1 μM ligand, 1 nM radioligand, CHO-hCB1 membranes; cited from earlier work
[17] = system: CBRs expressed in HeLa cells; experiment: [^3H]WIN-55,212-2 competitive binding screen, HeLa membranes; set-up: species or system human; conditions: 1 μM ligand, 1 nM radioligand
Method: as §1, with “The assay” for “Non-specific binding”, “conducted” for “defined”, “previously detailed. […]” for “radioactivity remaining in the presence of 10 μM of non-radioactive GTPγS and subtracted from total binding to determine specific [^35S]GTPγS binding.”, “20” for “30”, “in a 37 °C water bath to achieve equilibrium.” for “at 30 °C.”, “quantified” for “determined”

[18] = system: CBRs expressed in C6-glioma cells; experiment: [^3H]WIN-55,212-2 competitive binding screen, C6-glioma membranes; set-up: species or system mouse; conditions: 1 μM ligand, 1 nM radioligand
Method: as §1, with “The assay” for “Non-specific binding”, “conducted” for “defined”, “previously detailed. […]” for “radioactivity remaining in the presence of 10 μM of non-radioactive GTPγS and subtracted from total binding to determine specific [^35S]GTPγS binding.”, “20” for “30”, “in a 37 °C water bath to achieve equilibrium.” for “at 30 °C.”, “quantified” for “determined”

[19] = system: CBRs expressed in PC-3 cells; experiment: [^3H]CP-55,940 competitive binding screen, PC-3 membranes; set-up: species or system human; conditions: 1 μM ligand, 0.2 nM radioligand
Method: as §1, with “The assay” for “Non-specific binding”, “conducted” for “defined”, “previously detailed. […]” for “radioactivity remaining in the presence of 10 μM of non-radioactive GTPγS and subtracted from total binding to determine specific [^35S]GTPγS binding.”, “20” for “30”, “in a 37 °C water bath to achieve equilibrium.” for “at 30 °C.”, “quantified” for “determined”

[20] = system: CBRs expressed in DU-145 cells; experiment: [^3H]CP-55,940 competitive binding screen, DU-145 membranes; set-up: species or system human; conditions: 1 μM ligand, 0.2 nM radioligand
Method: as §1, with “The assay” for “Non-specific binding”, “conducted” for “defined”, “previously detailed. […]” for “radioactivity remaining in the presence of 10 μM of non-radioactive GTPγS and subtracted from total binding to determine specific [^35S]GTPγS binding.”, “20” for “30”, “in a 37 °C water bath to achieve equilibrium.” for “at 30 °C.”, “quantified” for “determined”

COc1ccc(C(=O)c2c(C)n(CCN3CCOCC3)c3cc(I)ccc23)cc1 [AM-630]
enhancement of forskolin-stimulated intracellular cAMP levels [1]: 117 ± 27.1% | LDH release (DU-145 cells [2]; 10 μM): No significant effects | increase in LDH release (DU-145 cells [2]; 50 μM): neither low (10 μM) nor high (50 μM) concentrations of WIN-55,212-2, AM-251 or AM-630 altered LDH release | attenuation of GW-405833 (50 μM)-induced LDH release (DU-145 cells [2]; co-incubation with 10 μM ligand): significantly attenuated | decrease in basal G protein activity ([^35S]GTPγS binding) [3]: 26.15 ± 5.15% | displacement of [^3H]WIN-55,212-2 ([4]; 1 μM ligand, 1 nM radioligand, PC-3 membranes): failed to displace | attenuation of GW-405833 (50 μM)-induced reduction in ATP concentrations (DU-145 cells [5]): significantly attenuated | displacement of [^3H]WIN-55,212-2 [6]: failed to displace | MMP on co-incubation with GW-405833 (10 μM) (DU-145 cells [7]; 10 μM ligand co-incubated): MMP was not significantly reduced from vehicle-treated levels | mitochondrial membrane potential (MMP) depolarization (DU-145 cells [7]; 10 μM): had no effect on MMP | mitochondrial membrane potential (MMP) depolarization (DU-145 cells [7]; 50 μM): had no effect on MMP

CCCCCCC(C)(C)c1ccc([C@@H]2C[C@H](O)CC[C@H]2CCCO)c(O)c1 [CP-55,940]
displacement of [^3H]WIN-55,212-2 (Figure 1B) [8]: produced near or complete displacement | displacement of [^3H]CP-55,940 [9]: produced near or complete displacement | displacement of [^3H]WIN-55,212-2 (Figure 1B) [10]: only WIN-55,212-2, and not CP-55,940, significantly displaced | displacement of [^3H]CP-55,940 ([11]; 0.2 nM radioligand): produced near or complete displacement | displacement of [^3H]WIN-55,212-2 (Figure 1B) ([11]; 1 nM radioligand): produced near or complete displacement | displacement of [^3H]CP-55,940 [12]: neither the non-selective CBR ligand CP-55,940 nor WIN-55,212-2 produced significant displacement | displacement of [^3H]CP-55,940 [13]: produced near or complete displacement | displacement of [^3H]WIN-55,212-2 [4]: only WIN-55,212-2, and not CP-55,940, significantly displaced | displacement of [^3H]CP-55,940 [14]: neither the non-selective CBR ligand CP-55,940 nor WIN-55,212-2 produced significant displacement | displacement of [^3H]WIN-55,212-2 [6]: only WIN-55,212-2, and not CP-55,940, significantly displaced | displacement of [^3H]CP-55,940 [15]: neither the non-selective CBR ligand CP-55,940 nor WIN-55,212-2 produced significant displacement | displacement of [^3H]WIN-55,212-2 (Figure 1B) [16]: produced near or complete displacement | displacement of [^3H]WIN-55,212-2 (Figure 1B) [17]: only WIN-55,212-2, and not CP-55,940, significantly displaced | displacement of [^3H]WIN-55,212-2 (Figure 1B) [18]: only WIN-55,212-2, and not CP-55,940, significantly displaced | displacement of [^3H]CP-55,940 [19]: neither the non-selective CBR ligand CP-55,940 nor WIN-55,212-2 produced significant displacement | displacement of [^3H]CP-55,940 [20]: neither the non-selective CBR ligand CP-55,940 nor WIN-55,212-2 produced significant displacement
